From US5607914A, “Synthetic antimicrobial peptides” (Pioneer Hi-Bred International, Inc., priority 1994, dated 1997)
Like-named read-outs stand apart in the source and are kept apart here. No end group written: not given here.

Legend:
A. flavus = test: Antifungal activity of synthetic peptides (MIC/MCIC); format: cell-based
F. graminearum = format: cell-based
F. moniliforme = test: Antifungal activity of synthetic peptides (MIC/MCIC); format: cell-based

Cecropin A (KWKLFKKIEKVGQNIRDGIIKAGPAVAVVGQATQIAK; ends and bridges not checked; UniProt P01507 27-63, looked up)
MCIC (A. flavus): > 80
MIC (A. flavus): 80 µg/mL
MIC (F. graminearum; F. graminearum, score of 1 or greater (25% growth inhibition)): 60 µg/mL
MCIC (F. graminearum; F. graminearum, score of 3 or greater (≥80% growth inhibition)): > 80 µg/mL
MCIC (F. moniliforme): > 80
MIC (F. moniliforme): 80 µg/mL

RRIYRAIRHIPRRIR [Peptide 22]
MIC (E. coli; E. coli): 3.13 μg per ml
MIC (C. nebraskense; C. nebraskense): 12.5 μg per ml

Mastoparan
MIC (A. flavus; A. flavus, concentration achieving a score of 1 or greater (25% growth inhibition)): 20 µg/mL
MCIC (A. flavus; A. flavus, concentration achieving a score of 3 or greater (≥80% growth inhibition)): 40 µg/mL
MCIC (F. graminearum): 10
MIC (F. graminearum): 5 µg/mL
MIC (F. moniliforme; F. moniliforme, score of 1 or greater (25% growth inhibition)): 2.5 µg/mL
MCIC (F. moniliforme; F. moniliforme, score of 3 or greater (≥80% growth inhibition)): 10 µg/mL

KWKKALRALARHLK [Peptide 19]
MIC (E. coli): 6.25 μg per ml
MIC (A. tumefaciens): 6.25 μg per ml
MIC (C. nebraskense): 3.13 μg per ml

KLKKALRWLARHAK [Peptide 20]
MIC (E. coli): 3.13 μg per ml
MIC (A. tumefaciens): 3.13 μg per ml
MIC (C. nebraskense): 3.13 μg per ml
